Experiments:
[1] = test system: bone marrow cells; assay: Ly6G/Ly6C expression patterns in C57BL/6 and MyD88^−/− mice; format: cell-based, C57BL/6 mice and C57BL/6 MyD88^−/− mice; details: MyD88 dependence study, 3 method
Protocol: In order to identify whether differentiation into respective MDSCs' subtypes is induced in a MyD88-dependent manner, C57BL/6 mice and C57BL/6 MyD88^−/− mice were treated in the same manner as the 3 method in Example 1, and then expression patterns of Ly6G and Ly6C were identified in the same manner as in Example 4 (FIG. 13).

[2] = test system: bone marrow cells; assay: Phenotypic analysis of cells induced by TLR stimulation; format: cell-based, C57BL/6 mice; details: 3 method, culture for 6 days
Excerpt: The results obtained by analyzing phenotypes of cells harvested after treating bone marrow cells with a TLR agonist in the same manner as the 3 method in Example 1 and performing culture for 6 days are illustrated in FIGS. 7 and 8. […] From these expression patterns, it was predictable that the cells induced by differentiation from the bone marrow cells are myeloid-derived suppressor cells (MDSCs).

[3] = test system: bone marrow cells; assay: Proportion of CD11c+MHC-II+ cells after TLR agonist treatment, wild type; format: cell-based; details: C57BL/6 mice, 3 method
Protocol: Additionally, in order to identify whether an effect of inhibiting differentiation into dendritic cells is induced in a MyD88-dependent manner, C57BL/6 mice and C57BL/6 MyD88^−/− mice were treated with a TLR agonist in the same manner as the 3 method in Example 1, to induce differentiation, and then a proportion of CD11c^+MHC-II^+ cells was measured. The results are illustrated in FIGS. 5 and 6.

[4] = test system: bone marrow cells; assay: TLR9 agonist on bone marrow cells of type I IFN receptor knockout mice; format: cell-based; details: 3 method, day 6
Protocol: Finally, in order to accurately check the function of type I IFN, bone marrow cells harvested from wild-type mice and type I IFN receptor knockout mice were treated with a TLR9 agonist using the 3 method in Example 1; and on day 6 of culture, degree of formation of PDCA-1^+ M-MDSCs and dendritic cells was evaluated.

[5] = test system: bone marrow cells; assay: MDSC subtypes by Gr-1, Ly6G and Ly6C expression; format: cell-based, C57BL/6 mice
Excerpt: As illustrated in Example 3, it can be seen that the cells, which have been induced by differentiation from bone marrow cells after TLR stimulation according to the 3 method in Example 1, are MDSCs. On the other hand, subtypes of the MDSCs may be divided into monocytic-MDSCs (M-MDSCs) and granulocytic-MDSCs (G-MDSCs). Gr-1^high cells mostly correspond to G-MDSCs, and Gr-1^low cells may be classified as M-MDSCs.
Thus, for MDSCs harvested after performing culture for 6 days with a Gr-1 antibody using the 3 method in Example 1, an expression level of Gr-1 was checked. The results are illustrated in FIGS. 9 and 10.
Furthermore, in order to accurately classify subtypes of MDSCs, their expression patterns were identified using Ly6G and Ly6C antibodies.

[6] = test system: bone marrow cells; assay: Cytokines induced at early differentiation stages after TLR stimulation; format: cell-based; details: for cytokines induced at early differentiation stages: 8, 18, and 36 hours after stimulation with TLR agonist; for IFN-γ, IL-15, IL-1β, TGF-β, IL-4, IL-12p70, IL-10, and FLT2L induction: not shown by data
Protocol: Hereinafter, experiments were conducted assuming that for respective M-MDSCs induced by differentiation upon treatment with a TLR2 or TLR9 agonist, differences in phenotype, T cell inhibition capacity, regulatory T cell formation capacity, and differentiation into dendritic cells are due to different cytokine secretion induced by each TLR stimulation. Therefore, cytokines induced at early differentiation stages (8, 18, and 36 hours after stimulation with TLR agonist) after treatment of bone marrow cells with a TLR2 or TLR9 agonist were analyzed.

[7] = test system: bone marrow cells; assay: Differentiation of bone marrow cells with GM-CSF, proportion of CD11c+ cells; format: cell-based, C57BL/6 mice; details: for capacity of inhibiting dendritic cells (proportion of CD11c^+ cells): 50 ng/ml, 3 method (initiation of differentiation and day 3), day 6 of culture
Protocol: Whole bone marrow cells in the femurs were harvested from C57BL/6 mice using a bone marrow harvesting needle. The harvested bone marrow cells were washed with PBS and red blood cells (RBCs) were removed using a red blood cell lysis buffer (Sigma Aldrich). The bone marrow cells were dispensed in a 6-well plate (1×10^6 cells/ml; 2 ml/well) and cultured, under a condition of 5% CO2 and 37° C., in complete RPMI 1640 (c-RPMI 1640) medium supplemented with 100 U/mL of penicillin/streptomycin (Lonza, Basel, Switzerland), 10% fetal bovine serum (Lonza), 50 μM mercaptoethanol (Lonza), 0.1 mM non-essential amino acids (Lonza), and GM-CSF (20 ng/mL). […] On day 3 of culture, the bone marrow cells and 1 ml of c-RPMI 1640 medium were added to each well. On day 6 of culture, the cells were collected and stained with Fluorescein-conjugated CD11c mAb to measure a proportion of CD11c^+ cells. […] In addition, in a case where the 3 method is used, proportions of CD11c^+ cells were checked for respective treatment concentrations of each TLR agonist (TLR2 agonist (Pam3)—1, 10, and 50 ng/ml; TLR3 agonist (Poly I:C)—10, 100, and 500 ng/ml; TLR4 agonist (LPS)—1, 10, and 50 ng/ml; TLR7 agonist (imiquimod)—1, 10, and 50 ng/ml; TLR9 agonist (CPG:ODN)—1, 10, and 50 ng/ml).

[8] = test system: Ly6C^+ M-MDSCs; assay: Ly6C+ M-MDSCs treated with GM-CSF, proportions of CD11c+ cells; format: cell-based; details: Ly6C^+ M-MDSCs of day 6, GM-CSF for 3 days
Protocol: Then, GM-CSF was applied in the same manner as in Example 8 and culture was performed for 3 days. Subsequently, proportions of CD11c^+ cells were checked for the respective treatments.
Then, on day 6 of culture, only Ly6C^+ M-MDSCs were collected. Subsequently, GM-CSF was applied in the same manner as in Example 8 and culture was performed for 3 days. Then, proportions of CD11c^+ cells were checked for the respective treatments.

[9] = test system: bone marrow cells; assay: Cytokine applied in place of the TLR agonist, formation of M-MDSCs and dendritic cells; format: cell-based; details: day 6; for M-MDSCs are formed and differentiation into dendritic cells is inhibited: 3 method
Excerpt: On day 6 of culture, it was identified whether M-MDSCs and dendritic cells are formed.

[10] = test system: M-MDSCs; assay: Secondary differentiation into dendritic cells of M-MDSCs induced with TLR9 agonist plus IL-6 or IL-6 receptor blocker; format: cell-based; details: GM-CSF 5 days; compared with only TLR9 agonist
Protocol: In order to identify whether the M-MDSCs induced according to respective treatments as described above are secondarily differentiated into dendritic cells, culture was performed for 5 days in the same manner as the method of inducing differentiation into dendritic cells in Example 8.

[11] = test system: bone marrow cells; assay: IL-6 or IL-6 receptor blocker together with TLR9 agonist, proportions of MDSCs and dendritic cells; format: cell-based; details: applied together with a TLR9 agonist, 3 method, day 6
Excerpt: In order to evaluate differentiation into M-MDSCs caused by IL-6 and functions of the M-MDSCs, recombinant IL-6 or an IL-6 receptor blocker was applied together with a TLR9 agonist using the 3 method in Example 1, and then the cells were harvested on day 6 of culture. Among the cells harvested according to the respective treatments, proportions of MDSCs and dendritic cells were checked.

Compound: ODN1826 [TLR9 agonist]
- Ly6C^high M-MDSCs (X4 cells) [1]: induced
- B220, another marker of pDCs [2]: no significant difference
- PDCA-1, a marker of plasmacytoid dendritic cells [2]: highly induced
- proportion of CD11c^+MHC-II^+ cells [3]: decreased
- induction of MDSCs [4]: not induced
- Gr-1^high MDSCs ([5]; 3 method, 6 days): induced at a high level
- Ly6C^high M-MDSCs (X4 cells) ([5]; Ly6G and Ly6C antibodies): induced
- cytokines induced at early differentiation stages [6]: TNF-α, IL-6, IFN-α, and IFN-β
- IFN-γ, IL-15, IL-1β, TGF-β, IL-4, IL-12p70, IL-10, and FLT2L induction [6]: not induced
- capacity of inhibiting dendritic cells (proportion of CD11c^+ cells) [7]: strongly induced

Compound: Pam3CSK4 [TLR2 agonist]
- Ly6C^int M-MDSCs (X3 cells) [1]: induced
- differentiation into dendritic cells (proportions of CD11c^+ cells) [8]: hardly induced
- proportion of CD11c^+MHC-II^+ cells [3]: decreased
- Gr-1^low MDSCs ([5]; 3 method, 6 days): induced at a high level
- Ly6C^int M-MDSCs (X3 cells) ([5]; Ly6G and Ly6C antibodies): induced
- cytokines induced at early differentiation stages [6]: TNF-α, IL-6, and PGE2
- IL-6 induction ([6]; as compared with a case of being treated with the TLR9 agonist): remarkably induced
- IFN-γ, IL-15, IL-1β, TGF-β, IL-4, IL-12p70, IL-10, and FLT2L induction [6]: not induced
- capacity of inhibiting dendritic cells (proportion of CD11c^+ cells) [7]: strongly induced

Compound: CCCCC[C@H](O)/C=C/[C@H]1[C@H](O)CC(=O)[C@@H]1C/C=C\CCCC(=O)O [PGE2]
- M-MDSCs are formed and differentiation into dendritic cells is inhibited [9]: in a concentration-dependent manner

Compound: IL-6: recombinant IL-6 protein
- M-MDSCs are formed and differentiation into dendritic cells is inhibited [9]: in a concentration-dependent manner
- M-MDSCs having the phenotype CD11c^−CD11b^+Ly6G^− Ly6C^+PDCA-1^− [9]: induced in large quantities
- degree of differentiation of M-MDSCs into dendritic cells [10]: remarkably decreased
- differentiation into PDCA-1^+ M-MDSCs [11]: increased
- differentiation into dendritic cells [11]: further decreased

Compound: CC(C)Cn1cnc2c(N)nc3ccccc3c21 [TLR7 agonist, imiquimod]
- Ly6C^high M-MDSCs (X4 cells) [1]: induced
- B220, another marker of pDCs [2]: no significant difference
- PDCA-1, a marker of plasmacytoid dendritic cells [2]: highly induced
- proportion of CD11c^+MHC-II^+ cells [3]: decreased
- Gr-1^high MDSCs ([5]; 3 method, 6 days): induced at a high level
- Ly6C^high M-MDSCs (X4 cells) ([5]; Ly6G and Ly6C antibodies): induced
- capacity of inhibiting dendritic cells (proportion of CD11c^+ cells) [7]: strongly induced

Compound: IFN-α
- M-MDSCs are formed and differentiation into dendritic cells is inhibited [9]: in a concentration-dependent manner

Compound: poly I:C [TLR3 agonist]
- inhibition of differentiation into dendritic cells (proportions of CD11c^+ cells for respective treatment concentrations) ([7]; 3 method, 1, 10, 50 ng/ml (TLR3 agonist 10, 100, 500 ng/ml)): not observed
